Experimental data from US5684003A, “5-HT4 receptor agonists” (Nisshin Flour Milling Co., Ltd., priority 1994, dated 1997).
Where a name gives a salt, the structure may show the parent alone. Read-outs that look alike come from different tables or passages of the source.

Legend:
[1] = biological target: T1, 5-HT3 receptor (Rattus norvegicus, UniProt P35563); assay: 5-HT3 receptor antagonist activity: inhibition of 2-Me-5-HT-induced reduction in heart rate in anesthetized rats; format: in vivo; conditions: iv (jugular vein) 5 minutes before 2-Me-5-HT 0.1 mg/kg, read-out: IC50 (the source's name)
T1 construct: from tissue; host or cells: whole anesthetized rat (in vivo); endogenous receptor
T1 sequence (P35563 24-483): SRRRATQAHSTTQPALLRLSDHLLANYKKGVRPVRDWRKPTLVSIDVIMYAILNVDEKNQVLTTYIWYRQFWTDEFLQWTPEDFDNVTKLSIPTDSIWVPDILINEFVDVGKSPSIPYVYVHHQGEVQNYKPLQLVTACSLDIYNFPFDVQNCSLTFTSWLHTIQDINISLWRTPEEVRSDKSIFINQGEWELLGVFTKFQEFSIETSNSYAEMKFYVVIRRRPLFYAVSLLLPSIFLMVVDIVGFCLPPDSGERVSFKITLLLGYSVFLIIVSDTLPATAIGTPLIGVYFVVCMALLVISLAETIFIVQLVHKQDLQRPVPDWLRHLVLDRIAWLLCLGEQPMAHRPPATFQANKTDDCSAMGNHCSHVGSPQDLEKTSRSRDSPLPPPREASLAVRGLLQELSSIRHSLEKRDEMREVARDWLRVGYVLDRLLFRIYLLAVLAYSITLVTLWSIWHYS
Method: For the purpose of studying a receptor selectivity of the present compounds, the 5-HT3 receptor antagonist activity was tested in the following manner. Rats were anesthetized with urethane and heart rate was recorded through femoral artery. The 5-HT3 selective agonist, 2-methyl-5-hydroxytryptamine (2-Me-5-HT) was administered at 0.1 mg/kg through carotid arteries and transient reduction in heart rate was recorded. The test. compounds were administered through jugular vein at 5 minutes before the administration of 2-Me-5-HT, inhibitory rate of reduction in heart rate by the administration of 2-Me-5-HT was calculated and IC50 value was calculated from the inhibitory rate.

[2] = biological target: 5-HT4 receptor (Cavia porcellus, UniProt O70528); assay: Increase in contraction height of electrically stimulated longitudinal muscle of isolated guinea pig ileum (LMMP); format: cell-based; set-up: key: +: indicates the increase in the contraction height; -: indicates no effect
5-HT4 receptor, sequence (O70528 whole entry): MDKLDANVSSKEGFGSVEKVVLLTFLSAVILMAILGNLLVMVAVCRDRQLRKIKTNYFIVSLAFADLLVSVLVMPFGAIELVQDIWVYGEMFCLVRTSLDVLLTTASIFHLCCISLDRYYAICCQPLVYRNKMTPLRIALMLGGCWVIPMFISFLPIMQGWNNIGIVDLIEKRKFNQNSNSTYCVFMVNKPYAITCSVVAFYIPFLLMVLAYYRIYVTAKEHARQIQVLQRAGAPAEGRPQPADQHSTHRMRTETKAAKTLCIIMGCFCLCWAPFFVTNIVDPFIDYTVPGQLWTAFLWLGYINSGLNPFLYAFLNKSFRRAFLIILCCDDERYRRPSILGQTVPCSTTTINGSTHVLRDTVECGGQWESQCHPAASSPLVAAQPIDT
From the text: Ileum was excised from guinea pigs to prepare longitudinal muscle samples with approximately 2 cm length. The sample was suspended in Krebs-Henseleit liquid bath supplied with a mixed gas (95% O2, 5% CO2) and subjected to electrical stimulation (1 msec, 0.1 Hz) to record contraction force isometrically. The test compounds were. dissolved in distilled water or DMSO and tested at a concentration of 10^-7 M (but 10^-6 M for Compound 11). The results are shown by the presence or absence of the increase in the contraction height by electrical stimulation before administration of the compound, wherein the symbol "+" indicates the increase in the contraction height, while "-" indicates no effect.
Whether or not the action of the above compounds is that via activation of 5-HT4 receptors was investigated using as 5-HT4 receptor antagonist, SDZ 205-557 (2-methoxy-4-amino-5-chlorobenzoic acid 2-(diethylamino)ethyl ester) described in Naunyn-Schmiedeberg's Arch Pharmacol (1992) 345:387-393. Thus, the investigation as to whether SDZ 205-557 can antagonize the increase in the contraction height of the above compounds using the longitudinal muscle preparation of the isolated guinea pig ileum can reveal that such increase in the contraction height is the action via activation of 5-HT4 receptors.

[3] = biological target: T2, 5-HT4 receptors (Rattus norvegicus, UniProt Q62758); assay: Relaxation of carbachol-contracted rat oesophageal tunica muscularis mucosae; format: cell-based
T2 construct: from tissue; host or cells: rat oesophageal tunica muscularis mucosae
T2 sequence (Q62758 whole entry): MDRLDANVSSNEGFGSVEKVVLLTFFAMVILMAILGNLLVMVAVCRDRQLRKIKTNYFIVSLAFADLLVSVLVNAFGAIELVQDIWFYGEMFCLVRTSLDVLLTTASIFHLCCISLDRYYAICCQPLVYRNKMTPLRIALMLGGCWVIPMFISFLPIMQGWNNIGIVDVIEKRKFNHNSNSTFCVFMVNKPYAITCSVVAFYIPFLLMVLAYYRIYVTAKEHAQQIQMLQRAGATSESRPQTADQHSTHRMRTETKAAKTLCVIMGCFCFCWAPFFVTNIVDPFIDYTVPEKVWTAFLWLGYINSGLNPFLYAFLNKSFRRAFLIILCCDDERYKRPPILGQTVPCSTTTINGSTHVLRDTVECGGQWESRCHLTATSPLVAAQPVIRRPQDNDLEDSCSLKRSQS
Method: The agonistic activity of oxazabicyclo derivatives and Mosapride on 5-HT4 receptors was determined by the procedure mentioned in Naunyn-Schmiedeberg's Arch Pharmacol (1991) 343:439-446.
The rat oesophageal tunica muscularis mucosae were suspended in organ both containing Krebs-Henseleit solution aerated with a mixed gas (95% O2, 5% CO2) and contracted with carbachol (1×10^-6 M). After the contraction was stabilized, the cumulative administration of the compounds was performed to determine the relaxation of the rat oesophagus pre-contracted with carbachol. The concentration (ED50) to cause 50% relaxation of the carbachol-induced contraction was measured. The result is expressed in terms of -log ED50 and shown in the following table in which higher numerical value indicates higher activity.

| SMILES | EC50 [3] [nM] | other results |
| --- | --- | --- |
| CCCN1[C@@H]2COC[C@H]1C[C@@H](NC(=O)c1nn(C(C)C)c3ccccc13)C2 [Example 2, N-[endo-9-(n-Propyl)-3-oxa-9-azabicyclo[3.3.1]non-7-yl]-1-isopropyl-indazole-3-carboxamide] | 2880 | ED50 [1]: 0.0089 mg/kg; LMMP: presence or absence of the increase in the contraction height by electrical stimulation ([2]; test concentration 10^-7 M): + |
| CCCCN1[C@@H]2COC[C@H]1C[C@@H](NC(=O)c1nn(CC)c3ccccc13)C2 [Example 4, N-[endo-9-(n-Butyl)-3-oxa-9-azabicyclo[3.3.1]non-7-yl]-1-ethylindazole-3-carboxamide] | 10200 |  |
| CCCCN1[C@@H]2COC[C@H]1C[C@@H](NC(=O)c1nn(CC(C)C)c3ccccc13)C2 [Example 7, N-[endo-9-(n-Butyl)-3-oxa-9-azabicyclo[3.3.1]non-7-yl]-1-isobutyl-indazole-3-carboxamide] | 5250 |  |
| CCCCN1[C@@H]2COC[C@H]1C[C@@H](NC(=O)c1nn([C@@H](C)CC)c3ccccc13)C2 [Example 18, (S)-(+)-N-[endo-9-(n-Butyl)-3-oxa-9-azabicyclo[3.3.1]non-7-yl]-1-(sec-butyl)indazole-3-carboxamide] | 437 | ED50 [1]: 0.0183 mg/kg |
| C=CCn1nc(C(=O)N[C@H]2C[C@H]3COC[C@@H](C2)N3CCCC)c2ccccc21 [Example 11, N-[endo-9-(n-Butyl)-3-oxa-9-azabicyclo[3.3.1]non-7-yl]-1-allyl-indazole-3-carboxamide] | 3550 | LMMP: presence or absence of the increase in the contraction height by electrical stimulation ([2]; test concentration 10^-6 M (Compound 11)): + |
| CCCCN1[C@@H]2COC[C@H]1C[C@@H](NC(=O)c1nn(CC=C(C)C)c3ccccc13)C2 [Example 12, N-[endo-9-(n-Butyl)-3-oxa-9-azabicyclo[3.3.1]non-7-yl]-1-(3-methyl-2-butenyl)indazole-3-carboxamide] | 6760 |  |
| CCCCN1[C@@H]2COC[C@H]1C[C@@H](NC(=O)c1nn(CCC)c3ccccc13)C2 [Example 1, N-[endo-9-(n-Butyl)-3-oxa-9-azabicyclo[3.3.1]non-7-yl]-1-(n-propyl)indazole-3-carboxamide] | 3800 |  |
| CCCCCN1[C@@H]2COC[C@H]1C[C@@H](NC(=O)c1nn(C(C)C)c3ccccc13)C2 [Example 14, N-[endo-9-(n-Pentyl)-3-oxa-9-azabicyclo[^3.3.1]non-7-yl]-1-isopropylindazole-3-carboxamide] | 1480 | ED50 [1]: 0.0281 mg/kg; LMMP: presence or absence of the increase in the contraction height by electrical stimulation ([2]; test concentration 10^-7 M): + |
| CC(C)n1nc(C(=O)N[C@H]2C[C@H]3COC[C@@H](C2)N3)c2ccccc21 [Example 28, N-[endo-3-Oxa-9-azabicyclo[3.3.1]non-7-yl]-1-isopropylindazole-3-carboxamide (hydrochloride)] | 468 |  |
| CCCCN1[C@@H]2COC[C@H]1C[C@@H](NC(=O)c1nn(CC3CC3)c3ccccc13)C2 [Example 13, N-[endo-9-(n-Butyl)-3-oxa-9-azabicyclo[3.3.1]non-7-yl]-1-(cyclopropylmethyl)indazole-3-carboxamide] | 2090 | LMMP: presence or absence of the increase in the contraction height by electrical stimulation ([2]; test concentration 10^-7 M): + |
| CCCCN1[C@@H]2COC[C@H]1C[C@@H](NC(=O)c1nn(CCCC)c3ccccc13)C2 [Example 6, N-[endo-9-(n-Butyl)-3-oxa-9-azabicyclo[3.3.1]non-7-yl]-1-(n-butyl)-indazole-3-carboxamide] | 4680 |  |
| CC#CC(C)n1nc(C(=O)N[C@H]2C[C@H]3COC[C@@H](C2)N3CCCC)c2ccccc21 (relative stereo) [Example 17, N-[endo-9-(n-Butyl)-3-oxa-9-azabicyclo[3.3.1]non-7-yl]-1-(1-methyl-2-butynyl)indazole-3-carboxamide] | 2240 |  |
| CN1[C@@H]2COC[C@H]1C[C@@H](NC(=O)c1nn(C)c3ccccc13)C2 [Comparative Example 1, N-[endo-9-Methyl-3-oxa-9-azabicyclo[3.3.1]non-7-yl]-1-methylindazole-3-carboxamide, reference compound] |  | LMMP: presence or absence of the increase in the contraction height by electrical stimulation ([2]; test concentration 10^-7 M): -; EC50 ([3]; ED50 = concentration to cause 50% relaxation of contraction by carbachol (1×10^-6 M), cumulative administration, read-out: Activity (-log ED50) (converted)): 115000 nM |
| CCCCCN1[C@@H]2COC[C@H]1C[C@@H](NC(=O)c1nn(C(CC)CC)c3ccccc13)C2 [Example 15, N-[endo-9-(n-Pentyl)-3-oxa-9-azabicyclo[3.3.1]non-7-yl]-1-(3-pentyl)-indazole-3-carboxamide] | 813 |  |
| CCCCN1[C@@H]2COC[C@H]1C[C@@H](NC(=O)c1nn(C(C)CCC)c3ccccc13)C2 (relative stereo) [Example 9, N-[endo-9-(n-Butyl)-3-oxa-9-azabicyclo[3.3.1]non-7-yl]-1-(2-pentyl)-indazole-3-carboxamide] | 776 |  |
| CCCCN1[C@@H]2COC[C@H]1C[C@@H](NC(=O)c1nn(C(C)C)c3c(O)cccc13)C2 [Example 27, N-[endo-9-(n-Butyl)-3-oxa-9-azabicyclo[3.3.1]non-7-yl]-7-hydroxy-1-isopropylindazole-3-carboxamide (hydrochloride)] | 15800 |  |
| CCCN1[C@@H]2COC[C@H]1C[C@@H](NC(=O)c1nn(C(CC)CC)c3ccccc13)C2 [Example 3, N-[endo-9-(n-Propyl)-3-oxa-9-azabicyclo[3.3.1]non-7-yl]-1-(3-pentyl)-indazole-3-carboxamide] | 1660 |  |
| CCCCN1[C@@H]2COC[C@H]1C[C@@H](NC(=O)c1nn(C(C)CC)c3ccccc13)C2 (relative stereo) [Example 8] | 631 | ED50 [1]: 0.0297 mg/kg; LMMP: presence or absence of the increase in the contraction height by electrical stimulation ([2]; test concentration 10^-7 M): + |
| CCCCN1[C@@H]2COC[C@H]1C[C@@H](NC(=O)c1nn(C(C)C)c3ccc(O)cc13)C2 [Example 26, N-[endo-9-(n-Butyl)-3-oxa-9-azabicyclo[3.3.1]non-7-yl]-5-hydroxy-1-isopropylindazole-3-carboxamide (hydrochloride)] | 10500 |  |
| CCCCN1[C@@H]2COC[C@H]1C[C@@H](NC(=O)c1nn(C3CCCC3)c3ccccc13)C2 [Example 16, N-[endo-9-(n-Butyl)-3-oxa-9-azabicyclo[3.3.1]non-7-yl]-1-cyclopentyl-indazole-3-carboxamide] | 7760 |  |
| CCCCN1[C@@H]2COC[C@H]1C[C@@H](NC(=O)c1nn(C(CC)CC)c3ccccc13)C2 [Example 10, N-[endo-9-(n-Butyl)-3-oxa-9-azabicyclo[3.3.1.]non-7-yl]-1-(3-pentyl)indazole-3-carboxamide] | 851 |  |
| CC(C)n1nc(C(=O)N[C@H]2C[C@H]3COC[C@@H](C2)N3C)c2ccccc21 [Comparative Example 2, N-[endo-9-Methyl-3-oxa-9-azabicyclo[3.3.1]non-7-yl]-1-isopropylindazole-3-carboxamide, reference compound] | 1510 | ED50 [1]: 0.00032 mg/kg; LMMP: presence or absence of the increase in the contraction height by electrical stimulation ([2]; test concentration 10^-7 M): + |
| CCCCN1[C@@H]2COC[C@H]1C[C@@H](NC(=O)c1nn([C@H](C)CC)c3ccccc13)C2 [Example 19, (R)-(-)-N-[endo-9-(n-Butyl)-3-oxa-9-azabicyclo[3.3.1]non-7-yl]-1-(sec-butyl)indazole-3-carboxamide] | 1050 |  |
